Data taken from publication PMC8983201 (Evidence-based Complementary and Alternative Medicine : eCAM, 2022).

Experiments:
Assay type in all cases: cell-based
tested cancer cell lines = assay: RRA cytotoxicity, summary over the panel of tested cancer cell lines; details: all cell lines tested (Table 3 panel)
Experimental: (§1) 18 cancer cell lines and normal hepatocyte AML12 were used in the present study. Cancer cell lines such as drug-sensitive leukemia CCRF-CEM and multidrug-resistant P-glycoprotein-overexpressing subline CEM/ADR5000 cells, breast cancer MDA-MB-231-pcDNA cells and its resistant subline MDA-MB-231-BCRP clone 23 cells, colon cancer HCT116 p53^+/+ cells and its knockout clone HCT116 p53^−/−, glioblastoma U87MG cells, and its resistant subline U87MG.ΔEGFR [7, 23, 24]. The maintenance of HepG2 cells and AML12 hepatocytes was also published. The CC531 rat colon carcinoma cells, B16-F1, B16-F10, A2058, SK-Mel505, MaMel-80a, MV3, SkMel-28, and Mel-2A, were previously reported.
(§2) Different types of human cancer cell lines were used in this study. The resazurin reduction assay (RRA) as previously described with similar experimental conditions to those reported earlier was used to measure the cell cytotoxicity. Fluorescence was measured on an Infinite M2000 Pro™ plate reader (Tecan, Germany) using an excitation wavelength of 544 nm and an emission wavelength of 590 nm. The viability was determined based on a comparison with untreated cells. The values representing the sample's concentrations required to inhibit 50% of cell proliferation (IC50) were calculated from a calibration curve by linear regression using Microsoft Excel 2013 [33, 34].

[1] = tested on: Mel-2a (BRAF-V600E heterozygous mutant); assay: RRA cytotoxicity, Mel-2a; details: Homo sapiens, compounds
Experimental: as §1, §2

[2] = tested on: SKMel-505 BRAF wild-type melanoma cells; assay: RRA cytotoxicity, SKMel-505; details: Homo sapiens; SKMel-505, compounds
Experimental: as §1, §2

MV3 (BRAF wild type) = assay: RRA cytotoxicity, MV3; details: Homo sapiens; MV3, compounds
Experimental: as §1, §2

[3] = tested on: A2058 (BRAF-V600E heterozygous mutant); assay: RRA cytotoxicity, A2058; details: Homo sapiens; A2058, compounds
Experimental: as §1, §2

B16-F10 murine melanoma = assay: RRA cytotoxicity, B16-F10; details: Mus musculus; B16-F10, compounds
Experimental: as §1, §2

[4] = tested on: CC531 rat colon carcinoma cells; assay: RRA cytotoxicity, CC531; details: Colon carcinoma cell, CC531, compounds
Experimental: as §1, §2

B16-F1 murine melanoma = assay: RRA cytotoxicity, B16-F1; details: Mus musculus; B16-F1, compounds
Experimental: as §1, §2

[5] = tested on: MaMel-80a (BRAF-V600E homozygous mutant melanoma); assay: RRA cytotoxicity, MaMel-80a; details: Homo sapiens, compounds
Experimental: as §1, §2

[6] = tested on: SKMel-28 (BRAF-V600E homozygous mutant); assay: RRA cytotoxicity, SKMel-28; details: Homo sapiens, SK-MEL-28; SKMel-28, compounds
Experimental: as §1, §2

glioblastoma U87MG cells = assay: RRA cytotoxicity, U87MG; details: Homo sapiens, U-87 MG, doxorubicin
Experimental: as §1, §2

normal AML12 hepatocytes = assay: RRA cytotoxicity, normal AML12 hepatocytes; details: Mus musculus; AML12, doxorubicin column of Table 2
Experimental: as §1, §2

U87MG.ΔEGFR cells = assay: RRA cytotoxicity, U87MG.ΔEGFR; details: Homo sapiens, doxorubicin
Experimental: as §1, §2

CCRF-CEM leukemia cells = assay: Resazurin reduction assay (RRA) cytotoxicity, CCRF-CEM; details: Homo sapiens, doxorubicin
Experimental: as §1, §2

[7] = tested on: breast cancer MDA-MB-231-pcDNA cells; assay: RRA cytotoxicity, MDA-MB-231-pcDNA; details: Homo sapiens, doxorubicin
Experimental: as §1, §2

HCT116 p53−/− cells = assay: RRA cytotoxicity, HCT116 (p53−/−); details: Homo sapiens, HCT-116, doxorubicin
Experimental: as §1, §2

[8] = tested on: MDA-MB-231-BCRP clone 23 cells; assay: RRA cytotoxicity, MDA-MB-231-BCRP; details: Homo sapiens, doxorubicin
Experimental: as §1, §2

[9] = tested on: HepG2 hepatocarcinoma cells; assay: RRA cytotoxicity, HepG2; details: Homo sapiens; HepG2, doxorubicin column of Table 2
Experimental: The resazurin reduction assay (RRA) as previously described [24, 32] with similar experimental conditions to those reported earlier [26–30] was used to measure the cell cytotoxicity. Fluorescence was measured on an Infinite M2000 Pro™ plate reader (Tecan, Germany) using an excitation wavelength of 544 nm and an emission wavelength of 590 nm. The viability was determined based on a comparison with untreated cells.

| Structure (SMILES) | IC50 (tested cancer cell lines) [µM] | IC50 [1] [µM] | IC50 [2] [µM] | IC50 (MV3 (BRAF wild type)) [µM] | IC50 [3] [µM] | IC50 (B16-F10 murine melanoma) [µM] | IC50 [4] [µM] | IC50 (B16-F1 murine melanoma) [µM] | IC50 [5] [µM] | IC50 [6] [µM] | IC50 (glioblastoma U87MG cells) [µM] | IC50 (normal AML12 hepatocytes) [µM] | IC50 (U87MG.ΔEGFR cells) [µM] | IC50 (CCRF-CEM leukemia cells) [µM] | IC50 [7] [µM] | IC50 (HCT116 p53−/− cells) [µM] | IC50 [8] [µM] | IC50 [9] [µM] |
| --- | --- | --- | --- | --- | --- | --- | --- | --- | --- | --- | --- | --- | --- | --- | --- | --- | --- | --- |
| CC(CCC1(O)OC2CC3C4CC=C5CC(OC6OC(CO)C(O)C(OC7OC(CO)C(O)C(O)C7O)C6OC6OC(C)C(O)C(O)C6O)CCC5(C)C4CCC3(C)C2C1C)COC1OC(CO)C(O)C(O)C1O [Compound 3, (25R)-26-O-(β-D-galactopyranosyl)-furost-5-ene-3β, 22α, 26-trihydroxy-3-O-β-D-glucopyranosyl-(1 ⟶ 2)-[α-L-rhamnopyranosyl-(1 ⟶ 3)]-β-D-glucopyranoside] | > 100 |  |  |  |  |  |  |  |  |  |  |  |  |  |  |  |  |  |
| C[C@@H]1CC[C@@]2(OC1)O[C@H]1C[C@H]3[C@@H]4CC=C5C[C@@H](O)CC[C@]5(C)[C@H]4CC[C@]3(C)[C@H]1[C@@H]2C [Compound 5, diosgenin] |  | > 100 | > 100 | > 100 | 27.1 ± 1.18 | > 100 | > 100 | > 100 | > 100 | > 100 |  |  |  |  |  |  |  |  |
| C[C@@H]1CC[C@@]2(OC1)O[C@H]1C[C@H]3[C@@H]4CC=C5C[C@@H](O[C@@H]6O[C@H](CO)[C@@H](O)[C@H](O)[C@H]6O)CC[C@]5(C)[C@H]4CC[C@]3(C)[C@H]1[C@@H]2C [Compound 6, diosgenin-3-O-β-D-glucopyranoside] |  | > 100 | > 100 | > 100 | 38.9 ± 2.78 | > 100 | > 100 | 79.2 ± 5.39 | > 100 | > 100 |  |  |  |  |  |  |  |  |
| C[C@@H]1CC[C@@]2(OC1)O[C@H]1C[C@H]3[C@@H]4CC=C5C[C@@H](O[C@@H]6O[C@H](CO)[C@@H](O[C@@H]7O[C@H](CO)[C@@H](O)[C@H](O)[C@H]7O)[C@H](O)[C@H]6O[C@@H]6O[C@@H](C)[C@H](O)[C@@H](O)[C@H]6O)CC[C@]5(C)[C@H]4CC[C@]3(C)[C@H]1[C@@H]2C [Compound 7, deltonin] | > 100 |  |  |  |  |  |  |  |  |  |  |  |  |  |  |  |  |  |
| CC(CCC1(O)OC2CC3C4CC=C5CC(OC6OC(CO)C(O)C(O)C6O)CCC5(C)C4CCC3(C)C2C1C)COC1OC(CO)C(O)C(O)C1O [Compound 8, 26-O-β-D-glucopyranosyl-(22R,25R)-3β, 22, 26-trihydroxyfurost-5-ene-3-O-β-D-glucopyranoside] | > 100 |  |  |  |  |  |  |  |  |  |  |  |  |  |  |  |  |  |
| COc1cccc2c1C(=O)c1c(O)c3c(c(O)c1C2=O)C[C@@](O)(C(=O)CO)C[C@@H]3O[C@H]1C[C@H](N)[C@H](O)[C@H](C)O1 [Doxorubicin, reference compound] |  | 6.63 ± 0.41 | 9.39 ± 1.01 | 7.09 ± 0.59 | 0.29 ± 0.04 | 0.24 ± 0.03 | 0.44 ± 0.23 | 0.22 ± 0.01 | 8.66 ± 0.56 | 2.14 ± 0.12 | 0.26 ± 0.03 | 52.9 ± 4.09 | 0.98 ± 0.07 | 0.02 | 0.13 ± 0.01 | 1.78 ± 0.08 | 0.79 ± 0.08 | 4.56 ± 0.48 |
